# In ChEMBL document CHEMBL1909046, “DrugMatrix in vitro pharmacology data”:
# Molecular target: Vasopressin V1a receptor (Homo sapiens, UniProt P37288); note: in other assays of this panel Not Active means under 50% inhibition at 10 µM
# Assay: not given
# Type: cell membranes, Membrane
# Details: hek293
# Sequence of Vasopressin V1a receptor (P37288 whole entry): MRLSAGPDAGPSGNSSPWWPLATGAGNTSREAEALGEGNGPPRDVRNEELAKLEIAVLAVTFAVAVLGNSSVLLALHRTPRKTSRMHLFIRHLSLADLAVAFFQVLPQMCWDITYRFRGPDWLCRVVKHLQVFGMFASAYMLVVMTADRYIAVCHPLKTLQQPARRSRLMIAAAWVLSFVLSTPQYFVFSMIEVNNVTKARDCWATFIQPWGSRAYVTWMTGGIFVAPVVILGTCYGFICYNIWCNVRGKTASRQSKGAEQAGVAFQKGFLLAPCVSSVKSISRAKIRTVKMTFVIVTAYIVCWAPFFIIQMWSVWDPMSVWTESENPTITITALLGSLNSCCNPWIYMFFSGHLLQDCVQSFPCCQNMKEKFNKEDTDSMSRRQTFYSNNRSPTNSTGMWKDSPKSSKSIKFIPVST
row,SMILES,IC50
1,NC(=O)c1ccccc1O [SALICYLAMIDE],Not Active
2,Nc1ccc(S(N)(=O)=O)cc1 [SULFANILAMIDE],Not Active
3,CC1CN(c2cc3c(cc2F)c(=O)c(C(=O)O)cn3-c2ccc(F)cc2F)CCN1 (stereo not given) [TEMAFLOXACIN],Not Active
4,COS(C)(=O)=O [METHANESULFONIC ACID METHYL ESTER],Not Active

# Molecular target: T1, C-C chemokine receptor type 4 (Homo sapiens, UniProt P51679); note: in other assays of this panel Not Active means under 50% inhibition at 10 µM
# T1 sequence (P51679 whole entry): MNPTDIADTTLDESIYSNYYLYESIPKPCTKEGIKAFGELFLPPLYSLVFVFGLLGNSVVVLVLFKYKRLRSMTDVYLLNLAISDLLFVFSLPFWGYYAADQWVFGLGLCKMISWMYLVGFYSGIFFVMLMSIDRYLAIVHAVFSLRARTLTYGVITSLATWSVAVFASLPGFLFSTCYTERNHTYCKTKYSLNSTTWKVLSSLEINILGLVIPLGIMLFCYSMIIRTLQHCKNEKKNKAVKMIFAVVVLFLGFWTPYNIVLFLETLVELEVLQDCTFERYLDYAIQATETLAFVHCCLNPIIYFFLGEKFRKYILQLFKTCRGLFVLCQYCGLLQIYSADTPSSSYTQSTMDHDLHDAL
# Assay: not given
# Type: cell membranes, Membrane
# Details: chem-1
row,SMILES,IC50
1,NC(=O)c1ccccc1O [SALICYLAMIDE],Not Active
2,Nc1ccc(S(N)(=O)=O)cc1 [SULFANILAMIDE],Not Active
3,CC1CN(c2cc3c(cc2F)c(=O)c(C(=O)O)cn3-c2ccc(F)cc2F)CCN1 (stereo not given) [TEMAFLOXACIN],Not Active
4,COS(C)(=O)=O [METHANESULFONIC ACID METHYL ESTER],Not Active

# Molecular target: T2, C-X-C chemokine receptor type 2 (Homo sapiens, UniProt P25025); note: in other assays of this panel Not Active means under 50% inhibition at 10 µM
# T2 sequence (P25025 whole entry): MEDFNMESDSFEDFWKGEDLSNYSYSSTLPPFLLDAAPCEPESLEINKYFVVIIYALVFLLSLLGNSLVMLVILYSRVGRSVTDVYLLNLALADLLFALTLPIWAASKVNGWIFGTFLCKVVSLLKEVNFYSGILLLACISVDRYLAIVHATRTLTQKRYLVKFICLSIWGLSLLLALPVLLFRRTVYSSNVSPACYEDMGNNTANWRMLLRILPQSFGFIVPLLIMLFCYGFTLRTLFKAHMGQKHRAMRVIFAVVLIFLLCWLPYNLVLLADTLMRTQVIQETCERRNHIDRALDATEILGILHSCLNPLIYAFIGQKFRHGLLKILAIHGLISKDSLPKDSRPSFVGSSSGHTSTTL
# Assay: not given
# Type: cell membranes, Membrane
# Details: cho-k1
row,SMILES,IC50
1,NC(=O)c1ccccc1O [SALICYLAMIDE],Not Active
2,Nc1ccc(S(N)(=O)=O)cc1 [SULFANILAMIDE],Not Active
3,CC1CN(c2cc3c(cc2F)c(=O)c(C(=O)O)cn3-c2ccc(F)cc2F)CCN1 (stereo not given) [TEMAFLOXACIN],Not Active
4,COS(C)(=O)=O [METHANESULFONIC ACID METHYL ESTER],Not Active

# System: not listed separately
# Assay: DRUGMATRIX: Glutamate, NMDA, Agonism radioligand binding (ligand: [3H] CGP-39653)
# Type: cell membranes, Rattus norvegicus, Wistar, Cerebral cortex, Membrane
# Details: Not Active = under 50% inhibition at 10 µM
SMILES,IC50,Ki
NC(=O)c1ccccc1O [SALICYLAMIDE],Not Active,Not Active
Nc1ccc(S(N)(=O)=O)cc1 [SULFANILAMIDE],Not Active,Not Active
CC1CN(c2cc3c(cc2F)c(=O)c(C(=O)O)cn3-c2ccc(F)cc2F)CCN1 (stereo not given) [TEMAFLOXACIN],Not Active,Not Active
COS(C)(=O)=O [METHANESULFONIC ACID METHYL ESTER],Not Active,Not Active

# System: not listed separately
# Assay: DRUGMATRIX: Glutamate, NMDA, Phencyclidine radioligand binding (ligand: [3H] TCP)
# Type: cell membranes, Rattus norvegicus, Wistar, Cerebral cortex, Membrane
# Details: Not Active = under 50% inhibition at 10 µM
SMILES,IC50,Ki
NC(=O)c1ccccc1O [SALICYLAMIDE],Not Active,Not Active
Nc1ccc(S(N)(=O)=O)cc1 [SULFANILAMIDE],Not Active,Not Active
CC1CN(c2cc3c(cc2F)c(=O)c(C(=O)O)cn3-c2ccc(F)cc2F)CCN1 (stereo not given) [TEMAFLOXACIN],Not Active,Not Active
COS(C)(=O)=O [METHANESULFONIC ACID METHYL ESTER],Not Active,Not Active

# Molecular target: T3, Leukotriene C4 synthase (Cavia porcellus, UniProt A6XA80);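 note: enzyme inhibition assay of leukotriene C4 synthase, using LTA4 as the substrate; in other assays of this panel Not Active means under 50% inhibition at 10 µM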
# T3 sequence (A6XA80 whole entry): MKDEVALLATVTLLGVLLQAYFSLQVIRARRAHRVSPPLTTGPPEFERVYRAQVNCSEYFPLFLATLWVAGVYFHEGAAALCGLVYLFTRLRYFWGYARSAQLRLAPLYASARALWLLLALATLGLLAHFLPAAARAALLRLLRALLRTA
# Assay: biochemical
# Type: tissue-based, Lung
# Details: not given
row,SMILES,IC50
1,NC(=O)c1ccccc1O [SALICYLAMIDE],Not Active
2,Nc1ccc(S(N)(=O)=O)cc1 [SULFANILAMIDE],Not Active
3,CC1CN(c2cc3c(cc2F)c(=O)c(C(=O)O)cn3-c2ccc(F)cc2F)CCN1 (stereo not given) [TEMAFLOXACIN],Not Active
4,COS(C)(=O)=O [METHANESULFONIC ACID METHYL ESTER],Not Active

# Molecular target: T4, Cysteinyl leukotriene receptor 1 (Homo sapiens, UniProt Q9Y271); note: in other assays of this panel Not Active means under 50% inhibition at 10 µM
# T4 sequence (Q9Y271 whole entry): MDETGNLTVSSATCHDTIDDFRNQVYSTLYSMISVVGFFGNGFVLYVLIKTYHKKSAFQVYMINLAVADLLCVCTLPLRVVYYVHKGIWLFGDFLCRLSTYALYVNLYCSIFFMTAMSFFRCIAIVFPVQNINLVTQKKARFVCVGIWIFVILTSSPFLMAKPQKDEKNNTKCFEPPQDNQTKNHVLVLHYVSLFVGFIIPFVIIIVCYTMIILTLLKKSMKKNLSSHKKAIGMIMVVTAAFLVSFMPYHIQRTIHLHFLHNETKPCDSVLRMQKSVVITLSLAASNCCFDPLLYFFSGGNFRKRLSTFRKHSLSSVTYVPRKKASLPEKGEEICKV
# Assay: not given
# Type: cell membranes, CHO-K1, Membrane
# Details: cho-k1
row,SMILES,IC50
1,NC(=O)c1ccccc1O [SALICYLAMIDE],Not Active
2,Nc1ccc(S(N)(=O)=O)cc1 [SULFANILAMIDE],Not Active
3,CC1CN(c2cc3c(cc2F)c(=O)c(C(=O)O)cn3-c2ccc(F)cc2F)CCN1 (stereo not given) [TEMAFLOXACIN],Not Active
4,COS(C)(=O)=O [METHANESULFONIC ACID METHYL ESTER],Not Active

# Molecular target: T5, Neuropeptide Y receptor type 1 (Homo sapiens, UniProt P25929); note: in other assays of this panel Not Active means under 50% inhibition at 10 µM
# T5 sequence (P25929 whole entry): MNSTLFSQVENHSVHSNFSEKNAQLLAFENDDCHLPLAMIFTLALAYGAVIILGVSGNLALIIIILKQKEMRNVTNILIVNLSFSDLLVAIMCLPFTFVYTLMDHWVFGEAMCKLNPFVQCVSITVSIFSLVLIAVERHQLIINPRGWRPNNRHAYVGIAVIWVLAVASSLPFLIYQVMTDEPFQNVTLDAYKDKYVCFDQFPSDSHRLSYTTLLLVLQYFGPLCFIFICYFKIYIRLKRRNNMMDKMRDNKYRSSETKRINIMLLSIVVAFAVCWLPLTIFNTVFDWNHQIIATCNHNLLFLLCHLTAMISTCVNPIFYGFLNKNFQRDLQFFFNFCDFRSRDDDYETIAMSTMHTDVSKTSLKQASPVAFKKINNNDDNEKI
# Assay: not given
# Type: cell membranes, Membrane
# Details: sk-n-mc
row,SMILES,IC50
1,NC(=O)c1ccccc1O [SALICYLAMIDE],Not Active
2,Nc1ccc(S(N)(=O)=O)cc1 [SULFANILAMIDE],Not Active
3,CC1CN(c2cc3c(cc2F)c(=O)c(C(=O)O)cn3-c2ccc(F)cc2F)CCN1 (stereo not given) [TEMAFLOXACIN],Not Active
4,COS(C)(=O)=O [METHANESULFONIC ACID METHYL ESTER],Not Active

# System: not listed separately
# Assay: DRUGMATRIX: Phorbol Ester radioligand binding (ligand: [3H] PDBu)
# Type: cell membranes, Mus musculus, ICR, Brain, Membrane
# Details: Not Active = under 50% inhibition at 10 µM
SMILES,IC50,Ki
NC(=O)c1ccccc1O [SALICYLAMIDE],Not Active,Not Active
Nc1ccc(S(N)(=O)=O)cc1 [SULFANILAMIDE],Not Active,Not Active
CC1CN(c2cc3c(cc2F)c(=O)c(C(=O)O)cn3-c2ccc(F)cc2F)CCN1 (stereo not given) [TEMAFLOXACIN],Not Active,Not Active
COS(C)(=O)=O [METHANESULFONIC ACID METHYL ESTER],Not Active,Not Active

# Molecular target: T6, Interstitial collagenase (Homo sapiens, UniProt P03956)
# T6 sequence (P03956 whole entry): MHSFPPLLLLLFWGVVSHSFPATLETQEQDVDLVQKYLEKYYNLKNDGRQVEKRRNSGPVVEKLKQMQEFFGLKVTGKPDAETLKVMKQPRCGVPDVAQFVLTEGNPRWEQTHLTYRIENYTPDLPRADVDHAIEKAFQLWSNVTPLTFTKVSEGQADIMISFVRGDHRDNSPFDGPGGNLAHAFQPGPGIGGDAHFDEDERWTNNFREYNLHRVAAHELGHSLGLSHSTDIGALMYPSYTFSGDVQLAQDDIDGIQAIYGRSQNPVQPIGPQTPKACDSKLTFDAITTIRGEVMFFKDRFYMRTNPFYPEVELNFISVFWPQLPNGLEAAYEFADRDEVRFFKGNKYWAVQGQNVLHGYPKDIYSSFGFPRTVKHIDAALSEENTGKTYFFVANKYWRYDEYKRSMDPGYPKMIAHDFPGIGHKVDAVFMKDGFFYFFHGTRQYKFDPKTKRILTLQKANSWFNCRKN
# Assay: not given
# Type: tissue-based, Rheumatoid synovial fibroblasts
# Details: not given
row,SMILES,IC50
1,NC(=O)c1ccccc1O [SALICYLAMIDE],Not Active
2,Nc1ccc(S(N)(=O)=O)cc1 [SULFANILAMIDE],Not Active
3,CC1CN(c2cc3c(cc2F)c(=O)c(C(=O)O)cn3-c2ccc(F)cc2F)CCN1 (stereo not given) [TEMAFLOXACIN],Not Active
4,COS(C)(=O)=O [METHANESULFONIC ACID METHYL ESTER],Not Active

# Molecular target: Mitogen-activated protein kinase 1 (Homo sapiens, UniProt P28482)
# Sequence (P28482 whole entry): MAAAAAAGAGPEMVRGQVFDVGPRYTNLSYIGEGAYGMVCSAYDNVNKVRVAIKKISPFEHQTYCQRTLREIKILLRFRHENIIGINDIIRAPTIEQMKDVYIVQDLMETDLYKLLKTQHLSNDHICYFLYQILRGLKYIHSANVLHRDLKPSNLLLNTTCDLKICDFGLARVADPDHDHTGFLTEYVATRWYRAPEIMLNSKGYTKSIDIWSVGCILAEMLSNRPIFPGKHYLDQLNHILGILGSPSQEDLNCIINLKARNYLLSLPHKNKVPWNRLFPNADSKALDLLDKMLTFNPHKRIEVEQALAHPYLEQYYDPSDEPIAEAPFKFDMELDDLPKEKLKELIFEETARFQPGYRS
# Assay: DRUGMATRIX: Protein Serine/Threonine Kinase, ERK2 enzyme inhibition (substrate: Myelin Basic Protein)
# Parameters: species or system Escherichia coli
# Details: Not Active = under 50% inhibition at 10 µM
row,SMILES,IC50
1,NC(=O)c1ccccc1O [SALICYLAMIDE],Not Active
2,Nc1ccc(S(N)(=O)=O)cc1 [SULFANILAMIDE],Not Active
3,CC1CN(c2cc3c(cc2F)c(=O)c(C(=O)O)cn3-c2ccc(F)cc2F)CCN1 (stereo not given) [TEMAFLOXACIN],Not Active
4,COS(C)(=O)=O [METHANESULFONIC ACID METHYL ESTER],Not Active

# Molecular target: T7, Adenosine receptor A3 (Homo sapiens, UniProt P0DMS8)
# T7 sequence (P0DMS8 whole entry): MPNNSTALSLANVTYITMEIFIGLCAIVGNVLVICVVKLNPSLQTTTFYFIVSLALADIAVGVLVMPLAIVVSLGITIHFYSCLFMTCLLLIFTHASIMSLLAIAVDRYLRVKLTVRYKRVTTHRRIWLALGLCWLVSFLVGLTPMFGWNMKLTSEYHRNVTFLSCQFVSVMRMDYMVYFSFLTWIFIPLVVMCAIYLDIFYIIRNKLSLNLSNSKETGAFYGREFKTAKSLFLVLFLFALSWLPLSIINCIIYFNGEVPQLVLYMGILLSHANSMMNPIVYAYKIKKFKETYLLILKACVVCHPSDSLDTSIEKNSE
# Assay: not given
# Type: cell membranes, CHO-K1, Membrane
# Details: cho-k1
row,SMILES,IC50
1,NC(=O)c1ccccc1O [SALICYLAMIDE],Not Active
2,Nc1ccc(S(N)(=O)=O)cc1 [SULFANILAMIDE],Not Active
3,CC1CN(c2cc3c(cc2F)c(=O)c(C(=O)O)cn3-c2ccc(F)cc2F)CCN1 (stereo not given) [TEMAFLOXACIN],Not Active
4,COS(C)(=O)=O [METHANESULFONIC ACID METHYL ESTER],Not Active
